According to PubChem BioAssay AID1963871 (Molecular Pharmacology Branch, DTP, NCI, 2024):

Tested on: KRAS-mutant PDC multicell tumor spheroid viability
Experiment: Anticancer human tumor 521955-158-R2-J5-PDC patient-derived pancreatic carcinoma cell line growth inhibition [KRAS2]
Details: for IC50: curve of first compound; for viability, T/C: stronger effect = lower value
Procedure, shortened: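 KRAS-mutant tumor cells were grown as spheroids with HUVEC endothelial cells and human MSCs as stroma. Targeted agents were tested alone and with KRAS pathway inhibitors. Doses started at or near clinical Cmax, or 10 microM, descending half-log.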

[1] = second compound 0.1 µM, first compound 0.0316 µM
[2] = second compound 0.1 µM, first compound 0.1 µM
[3] = second compound 0.316 µM, first compound 0.0316 µM
[4] = second compound 0.316 µM, first compound 0.1 µM
[5] = second compound 1 µM, first compound 0.0316 µM
[6] = second compound 1 µM, first compound 0.1 µM
[7] = second compound 3.16 µM, first compound 0.0316 µM
[8] = second compound 3.16 µM, first compound 0.1 µM
[9] = second compound 10 µM, first compound 0.0316 µM
[10] = second compound 10 µM, first compound 0.1 µM
[11] = second compound 0.1 µM, first compound 0.316 µM
[12] = second compound 0.1 µM, first compound 1 µM
[13] = second compound 0.1 µM, first compound 3.16 µM
[14] = second compound 0.1 µM, first compound 10 µM
[15] = second compound 0.316 µM, first compound 0.316 µM
[16] = second compound 0.316 µM, first compound 1 µM
[17] = second compound 0.316 µM, first compound 3.16 µM
[18] = second compound 0.316 µM, first compound 10 µM
[19] = second compound 1 µM, first compound 0.316 µM
[20] = second compound 1 µM, first compound 1 µM
[21] = second compound 1 µM, first compound 3.16 µM
[22] = second compound 1 µM, first compound 10 µM
[23] = second compound 3.16 µM, first compound 0.316 µM
[24] = second compound 3.16 µM, first compound 1 µM
[25] = second compound 3.16 µM, first compound 3.16 µM
[26] = second compound 3.16 µM, first compound 10 µM
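Note: viability read after seven days of drug exposure.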

SMILES: CC(C)n1nc(-c2ccc3oc(N)nc3c2)c2c(N)ncnc21 + COc1cc2nc(C)nc(NC(C)c3cc(N)cc(C(F)(F)F)c3)c2cc1OC1CCOC1
- IC50 (second compound 0.1 µM): 0.00915 µM
- IC50 (second compound 0.316 µM): 0.00773 µM
- IC50 (second compound 1 µM): 0.00655 µM
- IC50 (second compound 3.16 µM): 0.00441 µM
- IC50 (second compound 10 µM): 0.000453 µM
- viability, T/C (second compound 0.1 µM, first compound 0.000316 µM): 61.5%
- viability, T/C (second compound 0.1 µM, first compound 0.001 µM): 83.8%
- viability, T/C (second compound 0.1 µM, first compound 0.00316 µM): 64.1%
- viability, T/C (second compound 0.1 µM, first compound 0.01 µM): 48.5%
- viability, T/C [1]: 32.6%
- viability, T/C [2]: 26%
- viability, T/C (second compound 0.316 µM, first compound 0.000316 µM): 90.1%
- viability, T/C (second compound 0.316 µM, first compound 0.001 µM): 83.9%
- viability, T/C (second compound 0.316 µM, first compound 0.00316 µM): 65.4%
- viability, T/C (second compound 0.316 µM, first compound 0.01 µM): 44.8%
- viability, T/C [3]: 33.7%
- viability, T/C [4]: 25.6%
- viability, T/C (second compound 1 µM, first compound 0.000316 µM): 81%
- viability, T/C (second compound 1 µM, first compound 0.001 µM): 77.1%
- viability, T/C (second compound 1 µM, first compound 0.00316 µM): 57.1%
- viability, T/C (second compound 1 µM, first compound 0.01 µM): 46.8%
- viability, T/C [5]: 29.6%
- viability, T/C [6]: 25.1%
- viability, T/C (second compound 3.16 µM, first compound 0.000316 µM): 84.2%
- viability, T/C (second compound 3.16 µM, first compound 0.001 µM): 80.6%
- viability, T/C (second compound 3.16 µM, first compound 0.00316 µM): 53.7%
- viability, T/C (second compound 3.16 µM, first compound 0.01 µM): 35.8%
- viability, T/C [7]: 27.4%
- viability, T/C [8]: 20.2%
- viability, T/C (second compound 10 µM, first compound 0.000316 µM): 56.9%
- viability, T/C (second compound 10 µM, first compound 0.001 µM): 32.4%
- viability, T/C (second compound 10 µM, first compound 0.00316 µM): 34.7%
- viability, T/C (second compound 10 µM, first compound 0.01 µM): 26.1%
- viability, T/C [9]: 21.6%
- viability, T/C [10]: 19%

SMILES: Cn1nccc1Nc1nccc(-c2cc3c(s2)C(C)(C)N(CCN2CCOCC2)C3=O)n1 + C=CC(=O)N1CCN(c2nc(OCC3CCCN3C)nc3c2CCN(c2cccc4cccc(C)c24)C3)CC1CC#N
- IC50 (second compound 0.0316 µM): 0.657 µM
- IC50 (second compound 0.1 µM): 0.546 µM
- IC50 (second compound 0.316 µM): 0.458 µM
- IC50 (second compound 1 µM): 0.17 µM
- IC50 (second compound 3.16 µM): < 0.0316 µM
- viability, T/C (second compound 0.0316 µM, first compound 0.0316 µM): 100%
- viability, T/C (second compound 0.0316 µM, first compound 0.1 µM): 95.3%
- viability, T/C (second compound 0.0316 µM, first compound 0.316 µM): 64.3%
- viability, T/C (second compound 0.0316 µM, first compound 1 µM): 40.6%
- viability, T/C (second compound 0.0316 µM, first compound 3.16 µM): 29.7%
- viability, T/C (second compound 0.0316 µM, first compound 10 µM): 19.1%
- viability, T/C [1]: 98.2%
- viability, T/C [2]: 76.6%
- viability, T/C [11]: 57.1%
- viability, T/C [12]: 44.5%
- viability, T/C [13]: 23.8%
- viability, T/C [14]: 17.1%
- viability, T/C [3]: 78.4%
- viability, T/C [4]: 81%
- viability, T/C [15]: 48.3%
- viability, T/C [16]: 41.9%
- viability, T/C [17]: 22.1%
- viability, T/C [18]: 16.8%
- viability, T/C [5]: 75.5%
- viability, T/C [6]: 52.1%
- viability, T/C [19]: 41.6%
- viability, T/C [20]: 38%
- viability, T/C [21]: 23.3%
- viability, T/C [22]: 17.9%
- viability, T/C [7]: 11.5%
- viability, T/C [8]: 10.4%
- viability, T/C [23]: 6.73%
- viability, T/C [24]: 1.86%
- viability, T/C [25]: 0.55%
- viability, T/C [26]: 0.33%

SMILES: O=C(c1cc(Cc2n[nH]c(=O)c3ccccc23)ccc1F)N1CCN(C(=O)C2CC2)CC1 + C=CC(=O)N1CCN(c2nc(=O)n(-c3c(C)ccnc3C(C)C)c3nc(-c4c(O)cccc4F)c(F)cc23)C(C)C1
- IC50 (second compound 0.1 µM): > 10 µM
- IC50 (second compound 0.316 µM): > 10 µM
- IC50 (second compound 1 µM): > 10 µM
- IC50 (second compound 3.16 µM): > 10 µM
- IC50 (second compound 10 µM): > 10 µM
- viability, T/C [1]: 115%
- viability, T/C [2]: 120%
- viability, T/C [11]: 97.1%
- viability, T/C [12]: 89.6%
- viability, T/C [13]: 94.2%
- viability, T/C [14]: 64.8%
- viability, T/C [3]: 122%
- viability, T/C [4]: 110%
- viability, T/C [15]: 116%
- viability, T/C [16]: 103%
- viability, T/C [17]: 93.1%
- viability, T/C [18]: 77.7%
- viability, T/C [5]: 122%
- viability, T/C [6]: 115%
- viability, T/C [19]: 122%
- viability, T/C [20]: 103%
- viability, T/C [21]: 92.9%
- viability, T/C [22]: 73.5%
- viability, T/C [7]: 99.1%
- viability, T/C [8]: 109%
- viability, T/C [23]: 93.9%
- viability, T/C [24]: 102%
- viability, T/C [25]: 92.6%
- viability, T/C [26]: 68.9%
- viability, T/C [9]: 63.5%
- viability, T/C [10]: 61.9%
- viability, T/C (second compound 10 µM, first compound 0.316 µM): 65.6%
- viability, T/C (second compound 10 µM, first compound 1 µM): 66.2%
- viability, T/C (second compound 10 µM, first compound 3.16 µM): 68.9%
- viability, T/C (second compound 10 µM, first compound 10 µM): 43.4%
